According to article PMC8395125, “Conjugation with Phospholipids as a Modification Increasing Anticancer Activity of Phenolic Acids in Metastatic Melanoma—In Vitro and In Silico Studies” (International Journal of Molecular Sciences, 2021):

Key:
451-Lu cells [1] = assay: Cell cycle analysis (PI, flow cytometry), 451-Lu; assay type: cell-based, human; conditions: 100 µM, 72 h, vs untreated control
Method: (§1) For cell cycle analysis, harvested cells were centrifuged (1500 rpm, 3 min). After supernatant removal, cells were fixed with a hypotonic buffer, containing PI at 100 µg/mL in PBS, 5 mg/l of citric acid, 1:9 Triton-X solution, 100 µg/mL of RNase in PBS (Sigma-Aldrich, Poznan, Poland). Probes were incubated for 20 min at room temperature in the dark, then stored on ice till they were measured.
(§2) Cytometric analyses were performed immediately using an Aria III flow cytometer (Becton Dickinson, Franklin Lakes, NJ, USA) with FITC configuration (488 nm excitation; emission, LP mirror 503, BP filter 530/30) or with PE configuration (547 nm excitation; emission, 585 nm) and at least 10,000 cells were counted.

451-Lu melanoma cells = assay: Intracellular ROS formation (DCFH-DA, flow cytometry), 451-Lu; assay type: cell-based, human; conditions: 72 h, DCF fluorescence
Method: (§3) The experiments on ROS content were performed after 72 h of incubation with the given compounds. The cells were harvested and centrifuged (1500 rpm, 3 min), washed with PBS and centrifuged again. The pellet was resuspended in culture medium and a cell-permeable non-fluorescent probe 2′,7′-dichlorofluorescin diacetate (DCFH-DA, Sigma-Aldrich, Poznan, Poland) at a final concentration of 30 µM was added. The samples were incubated in darkness for 30 min at 37 °C, then stored on ice till they were measured. DCFH-DA is hydrolyzed by cellular esterases into its polar form DCFH. Due to the intracellular ROS and other peroxides, DCFH undergoes oxidation and turns into highly fluorescent compond 2′,7′-dichlorofluorescein (DCF).
as §2

1205-Lu cells = assay: Annexin-V/PI apoptosis assay, 1205-Lu; assay type: cell-based, human; conditions: 100 µM
Method: (§4) The studies of cell cycle, apoptosis and intracellular level of ROS were performed using the flow cytometry method. For the apoptosis assay, the cells were harvested and centrifuged (1500 rpm, 3 min). The apoptosis was measured using an Annexin-V apoptosis assay (BioLegend, San Diego, CA, USA). After supernatant removal, the cells were washed with PBS and centrifuged again. The pellets of cells were suspended in 50 μL of cold Annexin-V binding buffer and stained with FITC-labeled Annexin-V for 30 min at 37 °C in the dark. The Annexin-V binding buffer and propidium iodide (PI) solution (100 μg/mL; Sigma-Aldrich, Poznan, Poland) were then added and the samples were stored on ice till they were measured.
as §2

Me45 melanoma cells = assay: Intracellular ROS formation (DCFH-DA, flow cytometry), Me45; assay type: cell-based, human; conditions: Me45, 72 h, DCF fluorescence
Method: as §3, §2

Me45 cells [2] = assay: Cell cycle analysis (PI, flow cytometry), Me45; assay type: cell-based, human; conditions: Me45, 100 µM, 72 h, vs untreated control
Method: as §1, §2

[3] = tested on: 451-Lu metastatic melanoma cells; assay: MTT cell viability assay, 451-Lu; assay type: cell-based, human; conditions: Homo sapiens, 451Lu; MTT, 72 h, 50 to 400 μM, mean ± SD
Description: (§5) Three malignant melanoma cell lines (Me45, 1205-Lu and 451-Lu; obtained from the collection of the Centre of Oncology, Gliwice, Poland), neonatal human dermal fibroblast (NHDF; Lonza, Basel, Switzerland) and human colorectal adenocarcinoma cells (Caco-2; ATCC, Manassas, VA, USA) were used in the studies. The human malignant melanoma (Me45) cell line (derived from a lymph node metastasis of skin melanoma) was established in 1997 at the Radiobiology Department of the Centre of Oncology in Gliwice. 1205-Lu and 451-Lu cell lines were derived from human melanoma metastases to lungs of immunodeficient mice. The cells were cultivated in the medium DMEM-F12 (PAA, Warsaw, Poland) supplemented with 10% (for Me45, 1205-Lu and 451-Lu and NHDF) or 20% (Caco-2) of fetal bovine serum (FBS, Eurx, Gdansk, Poland). In addition, medium for Caco-2 cells contained Non-essential Amino Acid Solution (1×) (Sigma-Aldrich, Poznan, Poland). All cell lines were grown in the presence of 1% of antibiotics (10,000 μg/mL streptomycin and 10,000 units/mL penicillin; Sigma-Aldrich, Poznan, Poland), at 37 °C in humidified atmosphere with 5% CO2 under standard conditions. All experimental procedures were carried out in log-phase of cell growth. During some experiments melanoma cells were irradiated with X-rays at the dose of 2 Gy at the 24th hour of the incubation. Ionizing radiation was applied using a laboratory X-Cell 140 irradiator (Kubtec, Bridgeport, CT, USA).
(§6) Cells (Me45, 1205-Lu, 451-Lu and NHDF) were seeded on 96-well plates (20,000 cells/mL) 24 h before the experiment. One day later, fresh media containing tested compounds were added. The appropriate control, containing ethanol:DMSO (v/v 1:1) in fresh medium, was also prepared. The plates were incubated for a given time (72 h for Me45, 1205-Lu, 451-Lu and NHDF; 2 h for Caco-2) at 37 °C in humidified atmosphere with 5% CO2. After incubation, the medium was removed and cells were washed with physiological saline (PBS; PAA, Warsaw, Poland). In the next step, the cells were incubated with MTT (3-[4,5-dimethylthiazol-2-yl]-2,5-diphenyltetrazolium bromide, Sigma-Aldrich, Poznan, Poland) (solution of 0.5 mg/mL in RPMI 1640 without phenol red) for 2 h. Then, the MTT solution was removed and the formazan crystals were dissolved in the mixture isopropanol:HCl (v/v 1:0.04; both purchased from Sigma-Aldrich, Poznan, Poland). The absorbance of the obtained product was read at 570 nm using a microplate reader (Epoch; BioTek, Winooski, VT, USA). Survival rate was expressed as the percentage of cell survival and calculated from the ratio (A570 of treated cells/A570 of control cells) × 100%. The experiments were repeated three times.

1205-Lu melanoma cells = assay: Intracellular ROS formation (DCFH-DA, flow cytometry), 1205-Lu; assay type: cell-based, human; conditions: 72 h, DCF fluorescence
Method: as §3, §2

451-Lu cells [4] = assay: Annexin-V/PI apoptosis assay, 451-Lu; assay type: cell-based, human; conditions: 100 µM, 72 h
Method: as §4, §2

[5] = tested on: normal skin fibroblasts NHDF; assay: MTT cell viability assay, NHDF; assay type: cell-based, human; conditions: Homo sapiens, MTT, 72 h, 50 to 400 μM, mean ± SD
Description: as §5, §6

[6] = tested on: Me45 metastatic melanoma cells; assay: MTT cell viability assay, Me45; assay type: cell-based, human; conditions: Homo sapiens; MTT, 72 h, 50 to 400 μM, mean ± SD
Description: as §5, §6

Me45 cells [7] = assay: Annexin-V/PI apoptosis assay, Me45; assay type: cell-based, human; conditions: Me45, 100 µM, 72 h
Method: as §4, §2

[8] = tested on: 1205-Lu metastatic melanoma cells; assay: MTT cell viability assay, 1205-Lu; assay type: cell-based, human; conditions: Homo sapiens, 1205Lu; MTT, 72 h, 50 to 400 μM, mean ± SD
Description: as §5, §6

colon cancer cells = tested on: colon cancer cells; design: method as in PMID 30104549; conditions: cited from earlier work

## COc1ccc(C(=O)OC[C@H](COP(=O)([O-])OCC[N+](C)(C)C)OC(=O)c2ccc(OC)c(OC)c2)cc1OC [3b, 1,2-diveratroyl-sn-glycero-3-phosphocholine]
451-Lu cells [1]
  cell cycle phase distribution: increased the fraction of melanoma cells in the sub-G1 phase
451-Lu melanoma cells
  reactive oxygen species formation (antioxidant activity, words): highest ability to reduce ROS formation
1205-Lu cells; 48 h of incubation, without irradiation
  fraction of cells in the early stage of apoptosis: ~ 22%
1205-Lu cells; 72 h
  fraction of necrotic cells: significant increase in the fraction of necrotic cells
  induction of apoptosis: significant potency to induce apoptosis
Me45 melanoma cells
  reactive oxygen species formation (antioxidant activity, words): highest ability to reduce ROS formation
Me45 cells [2]
  cell cycle phase distribution: increased the fraction of Me45 cells in the sub-G1 as well as G2/M phases
[3]
  IC50: 48.3 ± 5.5 µM
1205-Lu melanoma cells
  reactive oxygen species formation (antioxidant activity, words): highest ability to reduce ROS formation
451-Lu cells [4]
  fraction of necrotic cells: significant increase in the fraction of necrotic cells
  induction of apoptosis: significant potency to induce apoptosis
[5]
  IC50: 168 ± 11.3 µM
[6]
  IC50: 84.4 ± 14 µM
Me45 cells [7]
  induction of apoptosis: significant potency to induce apoptosis
[8]
  IC50: 153 ± 9.5 µM
Colon cancer cells
  overcoming of doxorubicin-resistance: partially overcome doxorubicin-resistance
